Measured values from ChEMBL document CHEMBL1201862, “PubChem BioAssay data set” (2004).
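Briefly, cells in 96-well plates were exposed to five compound concentrations for 48 h, and endpoints were estimated by linear interpolation. At the GI50, growth is halved.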 Active and inactive are the calls of the source. Cut-off read from the data, not from the text of the source: active = GI50 up to about 1.1 µM and inactive = higher.

Columns and labels:
Assay in all cases: growth of human tumour cells (NCI), 48 h
SK-OV-3 = tested on: SK-OV-3
SN12C = tested on: SN12C
HOP-92 = tested on: HOP-92
BT-549 = tested on: BT-549
UO-31 = tested on: UO-31
T47D = tested on: T47D
OVCAR-5 = tested on: OVCAR-5
NCI-H23 = tested on: NCI-H23
NCI-H522 = tested on: NCI-H522
MOLT-4 = tested on: MOLT-4
UACC-62 = tested on: UACC-62
SF-295 = tested on: SF-295
RPMI-8226 = tested on: RPMI-8226
EKVX = tested on: EKVX
OVCAR-4 = tested on: OVCAR-4
OVCAR-3 = tested on: OVCAR-3
SF-268 = tested on: SF-268
A549 = tested on: A549
CCRF-CEM = tested on: CCRF-CEM
A498 = tested on: A498
SK-MEL-5 = tested on: SK-MEL-5
MDA-MB-435 = tested on: MDA-MB-435
DU-145 = tested on: DU-145
KM12 = tested on: KM12
ACHN = tested on: ACHN
CAKI-1 = tested on: CAKI-1
COLO 205 = tested on: COLO 205
Malme-3M = tested on: Malme-3M
PC-3 = tested on: PC-3
HCT-116 = tested on: HCT-116
NCI-H460 = tested on: NCI-H460
OVCAR-8 = tested on: OVCAR-8
SK-MEL-28 = tested on: SK-MEL-28
NCI-H226 = tested on: NCI-H226
TK-10 = tested on: TK-10
HL-60 = tested on: HL-60
K562 = tested on: K562
IGROV-1 = tested on: IGROV-1
SNB-75 = tested on: SNB-75
HCC 2998 = tested on: HCC 2998
HCT-15 = tested on: HCT-15
786-0 = tested on: 786-0
SR = tested on: SR
Hs-578T = tested on: Hs-578T
U-251 = tested on: U-251
SNB-19 = tested on: SNB-19
SF-539 = tested on: SF-539
LOX IMVI = tested on: LOX IMVI
NCI/ADR-RES = tested on: NCI/ADR-RES
M14 = tested on: M14
HT-29 = tested on: HT-29
HOP-62 = tested on: HOP-62
MCF7 = tested on: MCF7
SW-620 = tested on: SW-620
UACC-257 = tested on: UACC-257
MDA-MB-231 = tested on: MDA-MB-231
RXF 393 = tested on: RXF 393
SK-MEL-2 = tested on: SK-MEL-2
MDA-N = tested on: MDA-N

With `N[C@@H]1c2c(Br)sc(Br)c2C(=O)[C@H]1Br` the GI50 (SK-OV-3) was > 100 µM (inactive), the GI50 (SN12C) was 24.9 µM (inactive) and the GI50 (HOP-92) was 17.5 µM (inactive). For the same molecule, the GI50 (BT-549) was 19.1 µM (inactive), the GI50 (UO-31) was 27.9 µM (inactive) and the GI50 (T47D) was 30.2 µM (inactive). The GI50 (OVCAR-5) was > 82.4 µM (inactive), the GI50 (NCI-H23) was 24.8 µM (inactive) and the GI50 (NCI-H522) was 14.7 µM (inactive). For the same molecule, the GI50 (MOLT-4) was 4.69 µM (inactive), the GI50 (UACC-62) was 20.5 µM (inactive) and the GI50 (SF-295) was > 70.6 µM (inactive). For the same molecule, the GI50 (RPMI-8226) was 7.45 µM (inactive), the GI50 (EKVX) was 34.4 µM (inactive) and the GI50 (OVCAR-4) was 27.2 µM (inactive). The GI50 (OVCAR-3) was 30.6 µM (inactive), the GI50 (SF-268) was 31.2 µM (inactive) and the GI50 (A549) was > 100 µM (inactive). For the same molecule, the GI50 (CCRF-CEM) was 2.02 µM (inactive), the GI50 (A498) was 35.2 µM (inactive) and the GI50 (SK-MEL-5) was 2.6 µM (inactive). The GI50 (MDA-MB-435) was 23 µM (inactive), the GI50 (DU-145) was > 60.3 µM (inactive) and the GI50 (KM12) was 26.4 µM (inactive). For the same molecule, the GI50 (ACHN) was 20.6 µM (inactive), the GI50 (CAKI-1) was 27.3 µM (inactive) and the GI50 (COLO 205) was 1.88 µM (inactive). For the same molecule, the GI50 (Malme-3M) was 21.7 µM (inactive), the GI50 (PC-3) was 37.2 µM (inactive) and the GI50 (HCT-116) was 17.3 µM (inactive). The GI50 (NCI-H460) was 57.1 µM (inactive), the GI50 (OVCAR-8) was 20.5 µM (inactive) and the GI50 (SK-MEL-28) was 28.5 µM (inactive). The GI50 (NCI-H226) was > 42.3 µM (inactive), the GI50 (TK-10) was > 100 µM (inactive) and the GI50 (HL-60) was 2.42 µM (inactive). The GI50 (K562) was > 28.3 µM (inactive), the GI50 (IGROV-1) was 20.6 µM (inactive) and the GI50 (SNB-75) was > 100 µM (inactive). The GI50 (HCC 2998) was 31.3 µM (inactive), the GI50 (HCT-15) was 25.1 µM and the GI50 (786-0) was 23.1 µM (inactive). For the same molecule, the GI50 (SR) was 16.1 µM (inactive), the GI50 (Hs-578T) was 54.6 µM (inactive) and the GI50 (U-251) was 22.7 µM (inactive). For the same molecule, the GI50 (SNB-19) was 45.9 µM (inactive), the GI50 (SF-539) was > 63.1 µM (inactive) and the GI50 (LOX IMVI) was 15.7 µM (inactive). The GI50 (NCI/ADR-RES) was 22.2 µM (inactive), the GI50 (M14) was 20.6 µM (inactive) and the GI50 (HT-29) was 21.7 µM (inactive). The GI50 (HOP-62) was 50.4 µM (inactive), the GI50 (MCF7) was 36.7 µM (inactive) and the GI50 (SW-620) was 18.7 µM (inactive). The GI50 (UACC-257) was 18.6 µM (inactive), the GI50 (MDA-MB-231) was 23.6 µM (inactive) and the GI50 (RXF 393) was 22.1 µM (inactive). The GI50 (SK-MEL-2) was > 100 µM (inactive).

With `C=C(C)C(=O)O[C@H]1CC2(CO)O[C@@H]2CC/C(COC(C)=O)=C/C2OC(=O)C(=C)[C@@H]21` (stereo partly drawn) the GI50 (SK-OV-3) was > 100 µM (inactive), the GI50 (SN12C) was 92 µM (inactive) and the GI50 (HOP-92) was 26.4 µM (inactive). The GI50 (BT-549) was 21.8 µM (inactive), the GI50 (UO-31) was 22.5 µM (inactive) and the GI50 (T47D) was 29.5 µM (inactive). The GI50 (OVCAR-5) was > 100 µM (inactive), the GI50 (NCI-H23) was 42.2 µM (inactive) and the GI50 (NCI-H522) was 16.4 µM (inactive). The GI50 (MOLT-4) was 7.93 µM (inactive), the GI50 (UACC-62) was 39.5 µM (inactive) and the GI50 (SF-295) was > 100 µM (inactive). For the same molecule, the GI50 (RPMI-8226) was 7.16 µM (inactive), the GI50 (EKVX) was > 100 µM (inactive) and the GI50 (OVCAR-4) was 39.6 µM (inactive). For the same molecule, the GI50 (OVCAR-3) was 30.2 µM (inactive), the GI50 (SF-268) was > 100 µM (inactive) and the GI50 (A549) was > 100 µM (inactive). The GI50 (CCRF-CEM) was 15.7 µM (inactive), the GI50 (A498) was > 100 µM (inactive) and the GI50 (SK-MEL-5) was 28.3 µM (inactive). For the same molecule, the GI50 (MDA-MB-435) was 31.8 µM (inactive), the GI50 (DU-145) was > 96.6 µM (inactive) and the GI50 (KM12) was > 85.3 µM (inactive). For the same molecule, the GI50 (ACHN) was 26.1 µM (inactive), the GI50 (CAKI-1) was 28.8 µM (inactive) and the GI50 (COLO 205) was 18.2 µM (inactive). The GI50 (Malme-3M) was 23.4 µM (inactive), the GI50 (PC-3) was 56.1 µM (inactive) and the GI50 (HCT-116) was 18.2 µM (inactive). The GI50 (NCI-H460) was > 100 µM (inactive), the GI50 (OVCAR-8) was 22 µM (inactive) and the GI50 (SK-MEL-28) was 23.6 µM (inactive). The GI50 (NCI-H226) was > 46.1 µM (inactive), the GI50 (TK-10) was 25.4 µM (inactive) and the GI50 (HL-60) was 8.67 µM (inactive). The GI50 (K562) was 23.9 µM (inactive), the GI50 (IGROV-1) was > 64.6 µM (inactive) and the GI50 (SNB-75) was 59.7 µM (inactive). The GI50 (HCC 2998) was 44.6 µM (inactive), the GI50 (HCT-15) was 26.2 µM and the GI50 (786-0) was 20.2 µM (inactive). For the same molecule, the GI50 (SR) was 16.9 µM (inactive), the GI50 (Hs-578T) was > 92.5 µM (inactive) and the GI50 (U-251) was > 100 µM (inactive). The GI50 (SNB-19) was > 100 µM (inactive), the GI50 (SF-539) was 74.8 µM (inactive) and the GI50 (LOX IMVI) was 23.9 µM (inactive). The GI50 (NCI/ADR-RES) was 45.6 µM (inactive), the GI50 (M14) was 21 µM (inactive) and the GI50 (HT-29) was 34.8 µM (inactive). The GI50 (HOP-62) was > 100 µM (inactive), the GI50 (MCF7) was 11.4 µM (inactive) and the GI50 (SW-620) was 19.6 µM (inactive). The GI50 (UACC-257) was 20 µM (inactive), the GI50 (MDA-MB-231) was 61.4 µM (inactive) and the GI50 (RXF 393) was 12.1 µM (inactive). The GI50 (SK-MEL-2) was 52.4 µM (inactive).

In the case of `NC(CCP(=O)(O)O)C(=O)O` (stereo not drawn), the GI50 (SN12C) is reported as > 100 µM (inactive), the GI50 (HOP-92) is reported as > 100 µM (inactive) and the GI50 (BT-549) is reported as > 100 µM (inactive). For the same molecule, the GI50 (UO-31) was > 100 µM (inactive), the GI50 (T47D) was > 100 µM (inactive) and the GI50 (OVCAR-5) was > 100 µM (inactive). The GI50 (NCI-H23) was > 100 µM (inactive), the GI50 (NCI-H522) was > 100 µM (inactive) and the GI50 (MOLT-4) was > 100 µM (inactive). For the same molecule, the GI50 (UACC-62) was > 100 µM (inactive), the GI50 (SF-295) was > 100 µM (inactive) and the GI50 (RPMI-8226) was > 100 µM (inactive). For the same molecule, the GI50 (MDA-N) was > 100 µM (inactive), the GI50 (EKVX) was > 100 µM (inactive) and the GI50 (OVCAR-4) was > 100 µM (inactive). The GI50 (OVCAR-3) was > 100 µM (inactive), the GI50 (SF-268) was > 100 µM (inactive) and the GI50 (A549) was > 100 µM (inactive). The GI50 (CCRF-CEM) was > 100 µM (inactive), the GI50 (A498) was > 100 µM (inactive) and the GI50 (SK-MEL-5) was > 100 µM (inactive). The GI50 (MDA-MB-435) was > 100 µM (inactive), the GI50 (KM12) was > 100 µM (inactive) and the GI50 (ACHN) was > 100 µM (inactive). For the same molecule, the GI50 (CAKI-1) was > 100 µM (inactive), the GI50 (Malme-3M) was > 100 µM (inactive) and the GI50 (PC-3) was > 100 µM (inactive). The GI50 (HCT-116) was > 100 µM (inactive), the GI50 (NCI-H460) was > 100 µM (inactive) and the GI50 (OVCAR-8) was > 100 µM (inactive). For the same molecule, the GI50 (SK-MEL-28) was > 100 µM (inactive), the GI50 (NCI-H226) was > 100 µM (inactive) and the GI50 (TK-10) was > 100 µM (inactive). The GI50 (HL-60) was > 100 µM (inactive), the GI50 (K562) was > 100 µM (inactive) and the GI50 (IGROV-1) was > 100 µM (inactive). The GI50 (HCT-15) was over 100 µM, the GI50 (786-0) was > 100 µM (inactive) and the GI50 (SR) was > 100 µM (inactive). The GI50 (Hs-578T) was > 100 µM (inactive), the GI50 (U-251) was > 100 µM (inactive) and the GI50 (SNB-19) was > 100 µM (inactive). The GI50 (LOX IMVI) was > 100 µM (inactive), the GI50 (NCI/ADR-RES) was > 100 µM (inactive) and the GI50 (M14) was > 100 µM (inactive). For the same molecule, the GI50 (HT-29) was > 100 µM (inactive), the GI50 (HOP-62) was > 100 µM (inactive) and the GI50 (SW-620) was > 100 µM (inactive). The GI50 (UACC-257) was > 100 µM (inactive), the GI50 (MDA-MB-231) was > 100 µM (inactive) and the GI50 (RXF 393) was > 100 µM (inactive). The GI50 (SK-MEL-2) was > 100 µM (inactive).
